Values of other authors as cited in patent US9682037B2, “Non-mucoadhesive film dosage forms” (APR APPLIED PHARMA RESEARCH S.A., priority 2006, dated 2017).
Structures can show the parent of a compound that is named as a salt. Where two headings read alike, the source gives them in different places.

Assays:
[1] = oral
[2] = oral 5 mg once daily for 10 days, normal healthy volunteers

## Cc1nccn1CC1CCc2c(c3ccccc3n2C)C1=O (racemic) [Ondansetron Base, (±) 1,2,3,9 tetrahydro-9-methyl-3-[(2-methyl-1H-imidazol-1-yl)methyl]-4H-carbazol-4-one]
8 mg tablet
  Bioavailability: (56% for 8 mg tablet)
Healthy subjects
  Bioavailability in Healthy Subjects: Bioavailability in Healthy Subjects = ca. 45-75%
In vivo
  Tmax: Tmax = 1.5-2.5 Hours hours
Result in words
  Effect of food on absorption: Bioavailability slightly enhanced by food
  Linearity / dose proportionality of pharmacokinetics: Plasma concentrations are not dose

## Cc1nnc2n1-c1ccc(Cl)cc1C(c1ccccc1)=NC2 [Alprazolam]
In vivo
  Tmax: Tmax = 1-2 hours
Over 0.3-3.0 mg dose range
  Cmax: Cmax = 8.0-37 ng/ml over 0.3-3.0 mg dose range
Result in words
  Linearity / dose proportionality of pharmacokinetics: Plasma levels proportionate to dose given

## O=C1CN=C(c2ccccc2Cl)c2cc([N+](=O)[O-])ccc2N1 [Clonazepam]
In vivo
  Absolute Bioavailability: Absolute bioavailability = ca. 90%
  Tmax: Tmax = 1-4 hours

## Clc1ccc2c(c1)CCc1cccnc1C2=C1CCNCC1 [Desloratadine, 8-chloro, 6,11-dihydro-11-(4-piperdinylidene)-5H-benzo[5,6]cyclohepta[1,2-b]pyridine]
[2]
  AUC: AUC = 56.9 ng hr/ml*
  Tmax: Tmax = 3.0 hours*

## COc1ccc2c3c1O[C@H]1C[C@@H](O)C=C[C@@]31CCN(C)C2 [Galantamine HBr]
fasted
  Tmax: Tmax = ca. 60 minutes (fasted)
In vivo
  Absolute Bioavailability: Absolute bioavailability −= ca. 90%
With food
  Administration with food delays absorption (Tmax) by: 1.5 h

## O=C1Nc2ccc(Cl)cc2C(c2ccccc2Cl)=NC1O (centres unmarked) [Lorazepam]
2 mg
  Cmax: 20 ng/mL
In vivo
  Absolute Bioavailability: Absolute bioavailability = ca. 90%
  Tmax: Tmax = ca. 120 minutes
Result in words
  Linearity / dose proportionality of pharmacokinetics: dose proportionate

## Cc1cc2c(s1)Nc1ccccc1N=C2N1CCN(C)CC1 [Olanzapine, 2-methyl-4-(4-methyl-1-piperazinyl)-10H-thieno[2,3-b][1,5]benzodiazepine]
Administration once daily
  steady state conc. relative to conc. after single doses: ca. twice the conc. after single doses
In vivo
  Absolute Bioavailability: Absolute Bioavailability = ca. 60%
  Tmax: Tmax = 6.0 hours
Result in words
  Linearity / dose proportionality of pharmacokinetics: Linear pharmacokinetics over clinical dosing

## Cc1nc2n(c(=O)c1CCN1CCC(c3noc4cc(F)ccc34)CC1)CCCC2 [Risperidone]
In vivo
  Absolute Bioavailability: Absolute Bioavailability = ca. 70% (CV = 25%)
  Tmax: Tmax = 1.0 hour hours

## CCN(C)C(=O)Oc1cccc([C@H](C)N(C)C)c1 [Rivastigmine Tartrate]
3.0 mg dose
  Absolute Bioavailability: Absolute Bioavailability = ca. 36% for 3.0 mg
Doubling dose from 3 to 6 mg BID
  increase in AUC on doubling dose: Doubling dose from 3 to 6 mg BID → three fold
fasted
  Tmax: Tmax = 1.0 hours (fasted state)
Result in words
  Linearity / dose proportionality of pharmacokinetics: Linear pharmokinetics up to 3 mg BID
With food
  Administration with food delays absorption (Tmax) by: 1.5 h
  Food decreases/lowers Cmax by: ~30%

## CCCc1nn(C)c2c(=O)[nH]c(-c3cc(S(=O)(=O)N4CCN(C)CC4)ccc3OCC)nc12 [Sildenafil Citrate]
fasted
  Tmax: 0.5 to 2 h
fasted, 100 mg dose
  Cmax: Cmax = ca. 450 ng/ml.(fasted) (100 mg dose)
In vivo
  Absolute Bioavailability: Absolute bioavailability = ca. 40%

## CNS(=O)(=O)Cc1ccc2[nH]cc(CCN(C)C)c2c1 [Sumatriptan Succinate, 3-[2-(dimethylamino)ethyl]-N-methyl-indole-5-methanesulfonamide]
25 mg
  Cmax: 18 ng/mL
  Cmax range: 7 to 47 ng/mL
100 mg
  Cmax: 51 ng/mL
  Cmax range: (range 28-100 ng/ml) (100 mg)
100 mg tablets
  High fat meal: AUC increased by: 12%
  High fat meal: Cmax increased by: 15%
During migraine attack
  Tmax: ~2.5 h
In vivo
  Absolute Bioavailability: Absolute bioavailability = ca. 15%
  Cmax during a migraine attack versus when migraine free: Cmax is same during a migraine attack and when
Result in words
  Linearity / dose proportionality of pharmacokinetics: Single dose → dose proportionality in extent of
When migraine free
  Tmax: ~2.0 h

## CCCc1nc(C)c2c(=O)[nH]c(-c3cc(S(=O)(=O)N4CCN(CC)CC4)ccc3OCC)nn12 [Vardenafil HCl]
fasted
  Tmax: 0.5 to 2 h
  Tmax median: 1 h
fasted, 20 mg dose
  Cmax: 10 to 25 ng/mL
  Cmax median: ~18 ng/mL
High fat meal
  Administration with high fat meal lowers Cmax by: Cmax by ca. 18-50%
In vivo
  Absolute Bioavailability: Absolute bioavailability = ca. 15%

## CNC[C@H](O)c1cccc(O)c1 [phenylephrine]
[1]
  absolute bioavailability when ingested orally: approximately 40%
  time to peak plasma concentrations: 1 to 2 h
